Measurements taken from US8815806B2, “Yellow pea seed protein-derived peptides” (University of Manitoba, priority 2009, dated 2014).

Tests used:
[1] = test system: spontaneously hypertensive rats (SHR); assay: Spontaneously hypertensive rats, oral gavage, systolic blood pressure by tail-cuff; assay type: in vivo, rat; conditions: for change in systolic blood pressure (ΔSBP): 24 hour after oral gavage, 30 mg/kg BW; for hypotensive activities, duration of effect: over a 24 hr period, oral 30 mg/kg BW, FIG. 16
Description: Animal experiments were carried out following the Canadian Council on Animal Care ethics guidelines with a protocol approved by the University of Manitoba Animal Protocol and Management Review Committee. The spontaneously hypertensive rats (SHR) were kept in the Animal Housing Facility at the Richardson Centre for Functional Foods and Nutraceuticals, University of Manitoba under a 12-hr day and night cycle at 21° C. and were fed a regular chow diet and tap water, ad libitum. The SHR were divided into […] that received the following treatments (dissolved in phosphate buffered saline, pH 7.2): ADMFPF (SEQ ID NO. 23) peptide (n=6), WMP (SEQ ID NO. 15) peptide (n=6), captopril (positive control, n=6), saline (negative control, n=6). The peptides (each at 30 mg/kg body weight, BW) and captopril (3 mg/kg BW) were administered to the SHR by oral gavage followed by measurement of systolic blood pressure (SBP) at 2, 4, 6, 8 and 24 hr by the tail-cuff method in slightly anesthesized rats. Prior to sample administration, the baseline (time zero) SBP was determined. In order to mitigate the blood pressure (BP) depression effect of isofluorane, the gas flow was optimized such that rats became conscious usually within 3-4 min after removal from the chamber, which provided enough time to perform the blood pressure measurement. Rats were first anesthesized in a chamber (maintained at about 40° C.) with 4% isofluorane for 4 min. They were then removed from the isofluorane chamber and tail-cuff measurement of blood pressure performed in the […]. The change in SBP (ΔSBP, mmHg) was determined by subtracting the data for the different time points from their respective baseline data.

human recombinant renin = target: T1, human recombinant renin (Homo sapiens, UniProt P00797); assay: Renin inhibitory activity assay (fluorometric); assay type: biochemical; conditions: Table 1; peptide concentration not given
T1 construct: purchased Cayman Chemical; host or cells: HEK cells
T1 sequence (P00797 67-406): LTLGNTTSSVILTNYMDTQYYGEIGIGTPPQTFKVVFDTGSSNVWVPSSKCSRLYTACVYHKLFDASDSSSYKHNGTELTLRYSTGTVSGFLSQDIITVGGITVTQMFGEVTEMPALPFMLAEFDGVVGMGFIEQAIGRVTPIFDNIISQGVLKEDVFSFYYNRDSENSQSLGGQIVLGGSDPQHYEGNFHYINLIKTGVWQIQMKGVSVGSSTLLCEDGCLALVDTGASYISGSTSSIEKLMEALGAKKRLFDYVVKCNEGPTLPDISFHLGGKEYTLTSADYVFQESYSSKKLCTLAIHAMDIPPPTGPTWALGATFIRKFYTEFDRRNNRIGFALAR
Description: Renin inhibitory activity assays were carried out on a Shimadzu RF 1501 spectrofluorometer equipped with thermostated cell holder according to the method of Wang, Chung, Holzman, & Krafft (1993) with some modifications (FIG. 5 and Table 1). The following instrumental parameters were used: excitation wavelength, 340 nm; emission wavelength, 490 nm; excitation and emission bandwidth, 10 nm. A standard 2 mL, 1 cm pathlength cuvettes containing 1 mL of buffer (or 1 mL varied peptide concentrations) and 1 mL of 2.5 μM substrate, was equilibrated at 37° C. for 5 min to gain thermal equilibrium. A 15 μL of renin (0.4 μg renin) was then added to the cuvette to initiate the reaction. The time dependent increase of fluorescence intensity was monitored for 5 min. The initial reaction velocity, expressed in arbitrary fluorescence units per minute (FU/min), was calculated by least-squares analysis of the initial phase of the reaction. The renin inhibiting activity of the peptide fractions and the individual peptides within are described in Table 1.
Renin inhibiting assay was modified from the fluorometric assay developed for renin activity measurement (FIG. 5). […] The Michaelis-Menten constant (Km) in our study is 3.8 μM for human recombinant renin in the absence of peptide fractions. This value is close to the reported KM of 3.6 μM using the same source of renin and substrate under similar assay conditions (Holzman et al 1991). However, Km of human recombinant renin was also reported to be 1.62 μM (Toshihisa et al., 1992), or 1.25 μM in purified human renal renin acting on pure human plasma angiotensingen at pH 5.7 (Cumin et al., 1987), 1.54 μM at pH 6.5 (Slater and Strout 1981). The Km value for the reaction between renin and substrate also depends on pH, ionic strength, the medium and the assay procedure used (Poulsen et al., 1976). The Michaelis-Menten constants were increased to 6.3 and 6.1 μM, respectively in the presence of peptide fractions of T4 and T5, indicating decreased binding ability between renin and substrate because of the presence of competitive peptide inhibitors.

| Compound | RENIN INHIBITION % (human recombinant renin) [%] | also measured |
| --- | --- | --- |
| C[C@H](CS)C(=O)N1CCC[C@H]1C(=O)O [Captopril, captopril, reference compound] |  | hypotensive effect compared to ADMFPF ([1]; after 24 hour, captopril 3 mg/kg BW oral): less effective |
| ADMFPF (listed as Pisum sativum) [SEQ ID NO. 23] |  | change in systolic blood pressure (ΔSBP) [1]: −25 mmHg; hypotensive activities, duration of effect [1]: comparable to captopril |
| SEQ ID NO. 18: peptide identified within the bioactive fractions of yellow pea protein hydrolysate (WPHT; listed as Pisum sativum) | 9.30 |  |

Continued, in another order:

| RENIN INHIBITION % (human recombinant renin) [%] | Compound | also measured |
| --- | --- | --- |
| 4.85 | SEQ ID NO. 13: peptide identified within the bioactive fractions of yellow pea protein hydrolysate (WLP; listed as Pisum sativum) |  |
| 15.39 | SEQ ID NO. 14: peptide identified within the bioactive fractions of yellow pea protein hydrolysate (RAAP; listed as Pisum sativum) |  |
| 57.53 | SEQ ID NO. 17: peptide identified within the bioactive fractions of yellow pea protein hydrolysate (RSPD; listed as Pisum sativum) |  |
| 22.19 | SEQ ID NO. 19: peptide identified within the bioactive fractions of yellow pea protein hydrolysate (YPRE; listed as Pisum sativum) |  |
| 43.37 | WMP (listed as Pisum sativum) [SEQ ID NO. 15] | change in systolic blood pressure (ΔSBP) [1]: −14 mmHg; hypotensive activities, duration of effect [1]: comparable to captopril; hypotensive effects compared with ADMFPF ([1]; up to 8 hours after oral administration): initial higher hypotensive effects |
